# Laboratory results as given in ChEMBL document CHEMBL1201862, “PubChem BioAssay data set” (2004).
# Active and inactive are the calls of the source.
# How the values were obtained:
# [1] = target: Trypsin (Sus scrofa, UniProt P00761); assay: porcine trypsin inhibitors, dose response, selectivity assay for Rce1 protease inhibitor project, biochemical, quenched peptide fluorescence, cherry-pick (AID 488789)
# [2] = target: Acylamino-acid-releasing enzyme (Homo sapiens, UniProt P13798); assay: PME-1 inhibitor potency by in-gel ABPP, dose response, selectivity assay for PME-1 inhibitor project, cell lysate, mouse brain cytosol, FP-rhodamine, panel member APEH Assay Panel member description: Inhibition of N-acylaminoacyl-peptide hydrolase (APEH) (anti-target) (AID 2366)
# Chain of Acylamino-acid-releasing enzyme (P13798 whole entry): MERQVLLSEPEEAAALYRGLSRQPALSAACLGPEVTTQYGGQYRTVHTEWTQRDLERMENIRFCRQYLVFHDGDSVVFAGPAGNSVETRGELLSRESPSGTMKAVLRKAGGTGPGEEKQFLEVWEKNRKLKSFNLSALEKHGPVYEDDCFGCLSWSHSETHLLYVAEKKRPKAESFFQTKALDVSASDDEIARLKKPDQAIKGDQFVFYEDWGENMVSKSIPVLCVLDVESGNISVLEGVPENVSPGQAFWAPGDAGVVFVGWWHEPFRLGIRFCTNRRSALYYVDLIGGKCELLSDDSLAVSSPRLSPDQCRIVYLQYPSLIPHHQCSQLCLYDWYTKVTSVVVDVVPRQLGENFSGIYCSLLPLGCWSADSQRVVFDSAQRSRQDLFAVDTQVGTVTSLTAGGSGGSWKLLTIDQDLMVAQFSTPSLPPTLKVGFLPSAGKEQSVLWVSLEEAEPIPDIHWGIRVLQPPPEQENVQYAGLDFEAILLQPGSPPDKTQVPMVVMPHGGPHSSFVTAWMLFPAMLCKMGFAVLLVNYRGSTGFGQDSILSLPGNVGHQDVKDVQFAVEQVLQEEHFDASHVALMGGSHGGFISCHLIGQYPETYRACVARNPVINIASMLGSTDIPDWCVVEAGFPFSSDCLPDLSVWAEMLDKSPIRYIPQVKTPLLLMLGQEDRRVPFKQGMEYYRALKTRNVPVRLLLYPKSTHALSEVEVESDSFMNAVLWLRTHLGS
# [3] = target: Melanin-concentrating hormone receptor 1 (Homo sapiens, UniProt Q99705); assay: Late-stage fluorescence-based counterscreen for antagonists of the G-protein coupled receptor 7 (GPR7): cell-based dose response assay to identify antagonists of the melanin-concentrating hormone receptor 1 (MCHR1). [Related pubchem assays (depositor defined):AID1861, AID1880, AID1952, AID2148, AID2251, AID2257, AID485339]; type: functional;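 note: stimulated with 30 nM MCH peptide agonist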
# Chain of Melanin-concentrating hormone receptor 1 (Q99705 whole entry): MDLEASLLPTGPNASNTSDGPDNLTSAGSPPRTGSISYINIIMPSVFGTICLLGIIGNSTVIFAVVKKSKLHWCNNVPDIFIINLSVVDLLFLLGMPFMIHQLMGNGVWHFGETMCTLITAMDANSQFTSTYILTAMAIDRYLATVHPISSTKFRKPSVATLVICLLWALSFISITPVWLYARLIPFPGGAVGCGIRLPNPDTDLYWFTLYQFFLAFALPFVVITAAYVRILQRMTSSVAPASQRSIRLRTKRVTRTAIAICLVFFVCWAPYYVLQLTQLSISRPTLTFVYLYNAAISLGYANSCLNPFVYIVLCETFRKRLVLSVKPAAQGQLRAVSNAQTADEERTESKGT
# [4] = target: T1, Neuropeptides B/W receptor type 1 (Homo sapiens, UniProt P48145); assay: GPR7 antagonist potency, late-stage follow-up, cell-based, fluorescence, dose response (AID 463251); type: functional
# T1 sequence (P48145 whole entry): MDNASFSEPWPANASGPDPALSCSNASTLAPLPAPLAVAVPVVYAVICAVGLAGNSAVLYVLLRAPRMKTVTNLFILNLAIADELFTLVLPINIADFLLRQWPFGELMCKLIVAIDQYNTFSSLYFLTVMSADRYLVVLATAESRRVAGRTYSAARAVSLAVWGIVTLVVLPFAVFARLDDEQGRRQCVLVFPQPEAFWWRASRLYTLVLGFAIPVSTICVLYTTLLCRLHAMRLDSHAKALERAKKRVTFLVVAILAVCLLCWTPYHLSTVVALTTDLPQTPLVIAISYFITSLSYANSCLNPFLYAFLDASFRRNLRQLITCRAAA
# [5] = target: T2, Kappa-type opioid receptor (Homo sapiens, UniProt P41145); type: functional
# T2 sequence (P41145 whole entry): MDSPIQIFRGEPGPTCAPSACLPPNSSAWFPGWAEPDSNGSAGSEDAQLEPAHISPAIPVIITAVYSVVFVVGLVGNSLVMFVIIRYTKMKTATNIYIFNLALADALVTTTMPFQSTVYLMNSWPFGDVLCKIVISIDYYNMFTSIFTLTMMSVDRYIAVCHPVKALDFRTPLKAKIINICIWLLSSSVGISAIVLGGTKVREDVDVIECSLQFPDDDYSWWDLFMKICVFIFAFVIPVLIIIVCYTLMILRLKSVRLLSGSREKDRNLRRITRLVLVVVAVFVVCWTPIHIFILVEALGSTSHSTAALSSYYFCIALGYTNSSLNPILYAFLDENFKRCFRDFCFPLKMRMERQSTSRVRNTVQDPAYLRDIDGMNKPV
# [6] = test system: Streptococcus sp. 'group A'; assay: growth inhibition of control SK(-) GAS strain, dose response, counter-screen for streptokinase expression inhibitor project, luminescence, kanamycin, BacTiterGlo, confirmation (AID 1900); type: functional, organism-based
# [7] = cytotoxicity toward NIH3T3 fibroblasts, dose response, counter-screen, cell-based, ATP luminescence, mouse fibroblasts (AID 2010); type: functional;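 note: cells exposed to compound for about 90 hours before reading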
# [8] = target: T3, Streptokinase A (Streptococcus pyogenes serotype M1, UniProt P10520); assay: S. pyogenes streptokinase expression inhibitors, potency, dose response, plasminogen activation absorbance, OD405 (AID 1914); type: functional, Streptococcus pyogenes M1 GAS;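 note: secreted streptokinase activity via plasminogen activation per viability signal from cell pellet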
# T3 sequence (P10520 whole entry): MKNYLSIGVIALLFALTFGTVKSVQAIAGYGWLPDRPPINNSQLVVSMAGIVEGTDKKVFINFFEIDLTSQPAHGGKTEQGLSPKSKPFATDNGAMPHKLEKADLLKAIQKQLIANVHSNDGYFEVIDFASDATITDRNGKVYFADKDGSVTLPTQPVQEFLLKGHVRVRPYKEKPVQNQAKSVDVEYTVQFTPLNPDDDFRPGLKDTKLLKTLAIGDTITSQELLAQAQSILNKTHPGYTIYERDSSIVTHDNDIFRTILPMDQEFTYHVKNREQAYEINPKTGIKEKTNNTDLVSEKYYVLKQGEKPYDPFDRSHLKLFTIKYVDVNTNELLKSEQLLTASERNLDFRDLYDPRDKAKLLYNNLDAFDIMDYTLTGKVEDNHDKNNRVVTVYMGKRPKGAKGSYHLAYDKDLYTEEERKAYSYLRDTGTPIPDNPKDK
# [9] = target: E3 ubiquitin-protein ligase Mdm2 (Homo sapiens, UniProt Q00987); assay: enhancers of MDM2-luciferase reporter signal, concentration-effect titration, project on inhibitors of MDM2 ubiquitin ligase, cellular assay, luminescent readout, 384-well plate format (AID 1394); type: functional;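 note: MDM2 E3 inhibitors raise luminescence so EC50 is for signal enhancement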
# Chain of E3 ubiquitin-protein ligase Mdm2 (Q00987 whole entry): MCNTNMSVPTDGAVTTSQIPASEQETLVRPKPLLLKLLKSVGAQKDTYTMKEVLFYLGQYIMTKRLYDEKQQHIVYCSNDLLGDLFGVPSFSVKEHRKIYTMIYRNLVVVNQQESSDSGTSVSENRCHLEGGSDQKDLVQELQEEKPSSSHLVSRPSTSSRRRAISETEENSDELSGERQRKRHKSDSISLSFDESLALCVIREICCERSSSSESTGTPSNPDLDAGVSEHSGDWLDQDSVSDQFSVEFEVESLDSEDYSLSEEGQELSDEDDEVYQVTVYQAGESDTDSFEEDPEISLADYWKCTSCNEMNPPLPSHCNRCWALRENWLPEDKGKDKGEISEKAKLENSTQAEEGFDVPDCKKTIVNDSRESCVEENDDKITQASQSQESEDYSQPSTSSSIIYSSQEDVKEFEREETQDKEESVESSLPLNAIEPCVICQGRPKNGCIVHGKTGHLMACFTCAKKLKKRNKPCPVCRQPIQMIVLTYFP
# [10] = target: Beta-galactosidase (Escherichia coli, UniProt Q8VNN2); type: functional
# Chain of Beta-galactosidase (Q8VNN2 whole entry): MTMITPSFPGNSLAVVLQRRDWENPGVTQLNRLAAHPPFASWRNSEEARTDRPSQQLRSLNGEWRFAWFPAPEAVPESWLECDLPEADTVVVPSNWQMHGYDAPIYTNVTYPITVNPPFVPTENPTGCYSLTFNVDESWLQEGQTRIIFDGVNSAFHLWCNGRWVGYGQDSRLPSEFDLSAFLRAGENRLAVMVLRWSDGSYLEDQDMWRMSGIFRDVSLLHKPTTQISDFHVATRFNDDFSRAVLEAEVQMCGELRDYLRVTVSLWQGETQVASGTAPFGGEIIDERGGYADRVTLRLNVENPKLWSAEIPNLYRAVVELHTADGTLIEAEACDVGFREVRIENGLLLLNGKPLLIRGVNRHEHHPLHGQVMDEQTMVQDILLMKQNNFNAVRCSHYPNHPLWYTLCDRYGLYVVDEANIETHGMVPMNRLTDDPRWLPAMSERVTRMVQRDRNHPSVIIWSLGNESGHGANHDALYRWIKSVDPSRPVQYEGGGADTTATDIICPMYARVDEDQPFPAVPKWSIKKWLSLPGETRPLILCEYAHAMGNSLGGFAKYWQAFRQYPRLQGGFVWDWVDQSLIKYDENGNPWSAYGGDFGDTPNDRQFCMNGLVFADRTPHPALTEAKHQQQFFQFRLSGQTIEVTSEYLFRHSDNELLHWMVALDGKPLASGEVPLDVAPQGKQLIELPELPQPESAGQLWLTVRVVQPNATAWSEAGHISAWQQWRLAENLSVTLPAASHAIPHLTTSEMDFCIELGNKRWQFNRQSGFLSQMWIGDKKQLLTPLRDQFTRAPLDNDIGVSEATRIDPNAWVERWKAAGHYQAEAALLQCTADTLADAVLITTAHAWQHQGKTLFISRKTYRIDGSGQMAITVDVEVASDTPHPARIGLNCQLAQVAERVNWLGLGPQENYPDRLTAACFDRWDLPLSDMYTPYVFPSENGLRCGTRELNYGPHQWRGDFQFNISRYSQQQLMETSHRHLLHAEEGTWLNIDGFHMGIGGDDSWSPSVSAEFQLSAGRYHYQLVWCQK
# [11] = cells; type: functional, cell-based
# [12] = target: T2, Kappa-type opioid receptor; type: functional; remark: listed apart in the source
# [13] = inhibitors of intracellular T. cruzi replication, confirmation, NIH3T3 host cells, beta-gal luminescence (AID 2044); type: functional, cell-based;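 note: intracellular parasites grown in NIH/3T3 mouse fibroblasts as host cells; luminescent beta-galactosidase reporter signal from transgenic T. cruzi replicating inside host cells; inhibitors lower the luminescence signal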
# [14] = cells
# [15] = test system: Streptococcus; assay: Group A Streptococcus viability loss, dose response, counter-screen for streptokinase expression inhibitor project, luminescence, BacTiterGlo (AID 1915); type: functional, organism-based;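 note: potency for reduction of bacterial viability or growth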
# [16] = cells; type: functional, cell-based; remark: listed apart in the source
# Chain of Trypsin (P00761 whole entry): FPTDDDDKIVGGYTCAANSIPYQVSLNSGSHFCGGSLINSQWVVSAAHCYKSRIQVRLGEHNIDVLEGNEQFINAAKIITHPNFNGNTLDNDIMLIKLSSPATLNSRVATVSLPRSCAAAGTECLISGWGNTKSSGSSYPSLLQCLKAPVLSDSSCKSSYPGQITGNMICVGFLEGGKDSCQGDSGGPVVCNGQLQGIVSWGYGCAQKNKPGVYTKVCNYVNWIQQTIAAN
smiles,measurement,setting,value
COc1ccc(Cl)cc1Nc1nc(C)nc2c1oc1ccccc12,AC50,[1],14.4 µM (active)
N#C/C(=C\c1cccn1S(=O)(=O)c1ccccc1)S(=O)(=O)c1ccc(F)cc1,IC50,[2],> 50 µM (inactive)
O=C(C1CCCCN1Cc1ccc2ccccc2c1)N1CCN(c2ccc([N+](=O)[O-])cc2)CC1 (centres undefined),IC50,[3],3.1 µM (active)
same,IC50,[4],4.1 µM (active)
CS(=O)(=O)/C(C#N)=C/c1cccn1S(=O)(=O)c1ccc([N+](=O)[O-])cc1,IC50,[2],> 50 µM (inactive)
COc1ccc(Oc2c(Br)cnn(-c3ccccc3)c2=O)cc1,IC50,[3],> 20 µM (inactive)
c1ccc(CSC2=NNC(c3ccccn3)S2)cc1 (centres undefined),IC50,[5],> 31.5 µM (inactive)
same,EC50,[6],0.799 µM (active)
same,EC50,[7],> 60 µM (not active)
same,EC50,[8],> 150 µM (not active)
same,EC50,[9],12.4 µM (not active)
same,EC50,[10],> 31.5 µM (inactive)
same,EC50,[11],> 350 µM (not active)
same,IC50,[12],> 32 µM
same,EC50,[13],< 0.1 µM (active)
same,EC50,[14],1.73 µM (active)
same,EC50,[15],> 150 µM (not active)
same,EC50,[16],66.9 µM (active)
